Source: patent US10500195B2, “Antibacterial compounds” (WOCKHARDT LIMITED, priority 2017, dated 2019)
Values after ≈ are worked out from the molar mass of the structure shown.

What was measured:
[1] = system: E. coli strain M50 (CMY, DHA); experiment: Time-dependent bacterial kill study; assay type: cell-based; conditions: initial count 7.18 log10 CFU/ml
Description: In these studies, the initial bacterial count (at 0 hours) was 7.18 log10 CFU/ml. In general, 1, 2 and 3 log bacterial kill over initial count corresponds to […] bactericidal effect. In a typical time-dependent bacterial kill studies, freshly grown bacterial cultures were diluted to target cell density (initial starting inoculum) in Cation adjusted Muller Hinton broth medium (BD, USA). The antibacterial agents (either alone or in combination) at the required concentrations were added into the culture-containing medium. The sample flasks were incubated under shaking condition (120 rpm) at 37° C. Enumeration of viable bacterial count was undertaken periodically by diluting the sample in normal saline and plating on to the Tryptic Soya Agar plates (BD, USA). The plates were incubated for 24 hours to estimate viable bacterial count. The results are expressed in terms of Log10 CFU per ml.

[2] = system: K. pneumoniae H523; experiment: Antibacterial activity (MIC), agar dilution per CLSI; assay type: cell-based; conditions: Klebsiella pneumoniae
Description: (§1) The biological activity of representative compounds according to the invention against various bacterial strains was investigated. In a typical study, overnight grown bacterial cultures were diluted appropriately and inoculated on the agar media containing doubling dilutions of the test compounds. Observation for growth or no growth was performed after 16-20 hours of incubation at 35±2° C. in ambient air. The overall procedure was performed as per Clinical and Laboratory Standards Institute (CLSI) recommendations (Clinical and Laboratory Standards Institute (CLSI), Performance Standards for Antimicrobial Susceptibility Testing, 20th Informational Supplement, M 100-S20, Volume 30, No. 1, 2010).

[3] = system: E. coli M 50; experiment: as above; assay type: cell-based; conditions: Escherichia coli, M50
Description: as §1

[4] = system: E. coli 13352; experiment: as above; assay type: cell-based; conditions: Escherichia coli
Description: as §1

[5] = system: K. pneumoniae H522; experiment: as above; assay type: cell-based; conditions: Klebsiella pneumoniae
Description: as §1

[6] = system: K. pneumoniae ATCC 700603; experiment: as above; assay type: cell-based; conditions: Klebsiella pneumoniae, ATCC700603
Description: as §1

[7] = system: E. coli 13353; experiment: as above; assay type: cell-based; conditions: Escherichia coli
Description: as §1

[8] = system: E. coli M 36; experiment: as above; assay type: cell-based; conditions: Escherichia coli, M36
Description: as §1

[9] = system: K. pneumoniae H525; experiment: as above; assay type: cell-based; conditions: Klebsiella pneumoniae
Description: as §1

[10] = system: K. pneumoniae H521; experiment: as above; assay type: cell-based; conditions: Klebsiella pneumoniae
Description: as §1

[11] = system: E. coli M 138; experiment: as above; assay type: cell-based; conditions: Escherichia coli, M138
Description: as §1

[12] = system: E. coli M 49; experiment: as above; assay type: cell-based; conditions: Escherichia coli, M49
Description: as §1

[13] = system: E. coli 7MP; experiment: as above; assay type: cell-based; conditions: Escherichia coli
Description: as §1

[14] = system: E. coli 13351; experiment: as above; assay type: cell-based; conditions: Escherichia coli
Description: as §1

[15] = 2 hours, antibacterial agent alone 8 μg/ml
[16] = 4 hours, antibacterial agent alone 8 μg/ml
[17] = 6 hours, antibacterial agent alone 8 μg/ml
[18] = 8 hours, antibacterial agent alone 8 μg/ml

Compound | Bacterial count [1, 15] [Log10 CFU per ml] | Bacterial count [1, 16] [Log10 CFU per ml] | Bacterial count [1, 17] [Log10 CFU per ml] | Bacterial count [1, 18] [Log10 CFU per ml] | melting point | MIC [2] [µg/mL] | MIC [3] [µg/mL] | MIC [4] [µg/mL] | MIC [5] [µg/mL] | MIC [6] [µg/mL] | MIC [7] [µg/mL] | MIC [8] [µg/mL] | MIC [9] [µg/mL] | MIC [10] [µg/mL] | MIC [11] [µg/mL] | MIC [12] [µg/mL] | MIC [13] [µg/mL] | MIC [14] [µg/mL] | also measured
CO/N=C(\C(=O)N[C@@H]1C(=O)N2C(C(=O)[O-])=C(C[N+]3(C)CCCC3)CS[C@H]12)c1csc(N)n1 [Cefepime] | 7.85 | 8.65 | 8.90 | 9.0 |  |  |  |  |  |  |  |  |  |  |  |  |  |  | 
C=CC1=C(C(=O)O)N2C(=O)[C@@H](NC(=O)/C(=N\OCC(=O)O)c3csc(N)n3)[C@H]2SC1 [Cefixime] | 7.85 | 8.90 | 8.78 | 9.04 |  |  |  |  |  |  |  |  |  |  |  |  |  |  | 
COCC1=C(C(=O)O)N2C(=O)[C@@H](NC(=O)/C(=N\OC)c3csc(N)n3)[C@H]2SC1 [Cefpodoxime] | 7.95 | 8.70 | 8.95 | 9.30 |  |  |  |  |  |  |  |  |  |  |  |  |  |  | 
CC(C)(O/N=C(\C(=O)N[C@@H]1C(=O)N2C(C(=O)[O-])=C(C[n+]3ccccc3)CS[C@H]12)c1csc(N)n1)C(=O)O [Ceftazidime] | 7.81 | 8.90 | 9.0 | 8.92 |  |  |  |  |  |  |  |  |  |  |  |  |  |  | 
Nc1nc(/C(=C/CC(=O)O)C(=O)N[C@@H]2C(=O)N3C(C(=O)O)=CCS[C@H]23)cs1 [Ceftibuten] | 7.98 | 8.30 | 8.74 | 9.48 |  |  |  |  |  |  |  |  |  |  |  |  |  |  | 
O=C(NOC[C@@H]1C[C@H](F)CN1)[C@@H]1CC[C@@H]2CN1C(=O)N2OS(=O)(=O)O [Example 1, (2S, 5R)-N-{[(2S, 4S)-4-fluoropyrrolidin-2-yl]methyloxy}-7-oxo-6-(sulfooxy)-1,6-diazabicyclo[3.2.1]octane-2-carboxamide] |  |  |  |  | 180 to 183 °C (dec.) | 1 (≈ 2.62 µM) | 0.5 (≈ 1.31 µM) | 1 (≈ 2.62 µM) | 1 (≈ 2.62 µM) | > 32 | 0.5 (≈ 1.31 µM) | 0.25 (≈ 0.654 µM) | 0.5 (≈ 1.31 µM) | 1 (≈ 2.62 µM) | 0.5 (≈ 1.31 µM) | 4 (≈ 10.5 µM) | 1 (≈ 2.62 µM) | 0.5 (≈ 1.31 µM) | Bacterial count ([1]; 2 hours, Compound of Formula (Ia) alone 4 μg/ml): 7.78 Log10 CFU per ml; Bacterial count ([1]; 4 hours, Compound of Formula (Ia) alone 4 μg/ml): 6.74 Log10 CFU per ml; Bacterial count ([1]; 6 hours, Compound of Formula (Ia) alone 4 μg/ml): 5.85 Log10 CFU per ml; Bacterial count ([1]; 8 hours, Compound of Formula (Ia) alone 4 μg/ml): 6.13 Log10 CFU per ml
O=C(NOC[C@@H]1C[C@@H](F)CN1)[C@@H]1CC[C@@H]2CN1C(=O)N2OS(=O)(=O)O [Example 2, (2S, 5R)-N-{[(2S, 4R)-4-fluoropyrrolidin-2-yl]methyloxy}-7-oxo-6-(sulfooxy)-1,6-diazabicyclo[3.2.1]octane-2-carboxamide] |  |  |  |  | 160 to 163 °C (dec.) | 4 (≈ 10.5 µM) | 2 (≈ 5.23 µM) | 2 (≈ 5.23 µM) | 4 (≈ 10.5 µM) | > 32 | 1 (≈ 2.62 µM) | 1 (≈ 2.62 µM) | 4 (≈ 10.5 µM) | 4 (≈ 10.5 µM) | 2 (≈ 5.23 µM) | 4 (≈ 10.5 µM) | 2 (≈ 5.23 µM) | 1 (≈ 2.62 µM) | 
O=C(NOC[C@H]1C[C@H](F)CN1)[C@@H]1CC[C@@H]2CN1C(=O)N2OS(=O)(=O)O [Example 3, (2S, 5R)-N-{[(2R, 4S)-4-fluoropyrrolidin-2-yl]methyloxy}-7-oxo-6-(sulfooxy)-1,6-diazabicyclo[3.2.1]octane-2-carboxamide] |  |  |  |  | 175 to 178 °C (dec.) | 2 (≈ 5.23 µM) | 1 (≈ 2.62 µM) | 2 (≈ 5.23 µM) | 2 (≈ 5.23 µM) | > 32 | 1 (≈ 2.62 µM) | 1 (≈ 2.62 µM) | 2 (≈ 5.23 µM) | 2 (≈ 5.23 µM) | 1 (≈ 2.62 µM) | 4 (≈ 10.5 µM) | 2 (≈ 5.23 µM) | 1 (≈ 2.62 µM) | 
O=C(NOC[C@H]1C[C@@H](F)CN1)[C@@H]1CC[C@@H]2CN1C(=O)N2OS(=O)(=O)O [Example 4, (2S, 5R)-N-{[(2R, 4R)-4-fluoropyrrolidin-2-yl]methyloxy}-7-oxo-6-(sulfooxy)-1,6-diazabicyclo[3.2.1]octane-2-carboxamide] |  |  |  |  | 207 to 209 °C (dec.) | 4 (≈ 10.5 µM) | 2 (≈ 5.23 µM) | 4 (≈ 10.5 µM) | 4 (≈ 10.5 µM) | > 32 | 1 (≈ 2.62 µM) | 1 (≈ 2.62 µM) | 2 (≈ 5.23 µM) | 4 (≈ 10.5 µM) | 2 (≈ 5.23 µM) | 4 (≈ 10.5 µM) | 4 (≈ 10.5 µM) | 2 (≈ 5.23 µM) | 
